Literature values in patent US20020042375A1, “Method of treating cancer” (priority 2000, published 2002).

Experiments:
LNCaP cells = conditions: exogenous administration
prostate cancer cell = conditions: in vitro
[1] = test system: LNCaP prostate cancer cells
[2] = test system: PC-3 prostate cancer cells; conditions: PC-3 cells

CCCCC(C)(C)[C@H](O)/C=C/[C@H]1[C@H](O)CC(=O)[C@@H]1C/C=C\CCCC(=O)O [dimethylprostaglandin E2]
proliferation in vitro (PC-3 cells; exogenous administration, PC-3 cells): increased proliferation | proliferation in vitro (LNCaP cells): increased proliferation

COc1ccc2c(c1)c(CC(=O)O)c(C)n2C(=O)c1ccc(Cl)cc1 [indomethacin]
prostate cancer cell apoptosis (prostate cancer cell): induce prostate cancer cell apoptosis

CC(C(=O)O)c1ccc(-c2ccccc2)c(F)c1 (centres unmarked) [flurbiprofen]
prostate cancer cell apoptosis (prostate cancer cell): induce prostate cancer cell apoptosis | PC-3 growth (PC-3 cells; in the dimethylprostaglandin E2 model): inhibited PC-3 growth

CC(C(=O)O)c1cccc(C(=O)c2ccccc2)c1 (centres unmarked) [ketoprofen]
prostate cancer cell apoptosis (prostate cancer cell): induce prostate cancer cell apoptosis

CN1C(C(=O)Nc2ccccn2)=C(O)c2ccccc2S1(=O)=O [piroxicam]
prostate cancer cell apoptosis (prostate cancer cell): induce prostate cancer cell apoptosis

CC(=O)Oc1ccccc1C(=O)O [aspirin]
prostate cancer cell apoptosis (prostate cancer cell): induce prostate cancer cell apoptosis

CS(=O)(=O)Nc1ccc([N+](=O)[O-])cc1OC1CCCCC1 [NS398]
prostate cancer cell apoptosis (prostate cancer cell): induce prostate cancer cell apoptosis | apoptosis [1]: induce apoptosis | apoptosis [2]: induce apoptosis
